{"source": "patent US12589143B2", "about": "“Human anti-PD-L1 peptide vaccines and methods of their use” (priority 2019, dated 2026)", "test_system": "MVF-PD-L1 peptide immunogen", "assay": "Immunogenicity in Balb/c mice, experiment 1 (CT26 WT): ELISA of sera vs each MVF-PD-L1 peptide immunogen", "format": "in vivo", "conditions": "for Immunogenicity (titers) 1′ Conc. 1:: Balb/c mice", "summary_of_the_method": "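Female Balb/c mice aged 6–8 weeks received 100 μg of each MVF-PD-L1 peptide in Montanide ISA 720 with nor-MDP three times at 3-week intervals. Weekly sera were titered by ELISA against each immunogen on 200 ng/well peptide. Titer was the highest dilution giving absorbance 0.2 after blank subtraction.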", "note": "“And” between values parts separate entries of the source, which are not always exact repeats. Equal entries are not always repeated. Where no end group is shown, it is not given here.", "data": [{"sequence": "KLLSLIKGVIVHRLEGVEGPSLYRCMISYGGADYKRITVK (KLLSLIKGVIVHRLEGVEGPSLYRCMISYGGADYKRITVK-NH2) [PD-L1(95)]", "values": [{"measurement": "Immunogenicity (titers) 1′ Conc. 1:", "setting": "bleed 1Y + 3", "value": 0}, {"measurement": "Immunogenicity (titers) 1′ Conc. 1:", "setting": "bleed 2Y + 1", "value": 12800}, {"measurement": "Immunogenicity (titers) 1′ Conc. 1:", "setting": "bleed 2Y + 2", "value": 32000}, {"measurement": "Immunogenicity (titers) 1′ Conc. 1:", "setting": "bleed 2Y + 3", "value": 32000}, {"measurement": "Immunogenicity (titers) 1′ Conc. 1:", "setting": "bleed 3Y + 1", "value": 32000}, {"measurement": "Immunogenicity (titers) 1′ Conc. 1:", "setting": "bleed 3Y + 2", "value": 64000}, {"measurement": "Immunogenicity (titers) 1′ Conc. 1:", "setting": "bleed 3Y + 3", "value": 32000}, {"measurement": "ELISA absorbance of sera", "setting": "bleed 1Y + 3 (1to100), dilution 100", "value": "0.165 and 0.150"}, {"measurement": "ELISA absorbance of sera", "setting": "bleed 1Y + 3 (1to100), dilution 200", "value": "0.088 and 0.078"}, {"measurement": "ELISA absorbance of sera", "setting": "bleed 1Y + 3 (1to100), dilution 400", "value": "0.040 and 0.036"}, {"measurement": "ELISA absorbance of sera", "setting": "bleed 1Y + 3 (1to100), dilution 800", "value": "0.020 and 0.021"}, {"measurement": "ELISA absorbance of sera", "setting": "bleed 1Y + 3 (1to100), dilution 1,600", "value": "0.008 and 0.007"}, {"measurement": "ELISA absorbance of sera", "setting": "bleed 1Y + 3 (1to100), dilution 3,200", "value": 0.006}, {"measurement": "ELISA absorbance of sera", "setting": "bleed 1Y + 3 (1to100), dilution 6,400", "value": "0.002 and 0.001"}, {"measurement": "ELISA absorbance of sera", "setting": "bleed 2Y + 1 (1to100), dilution 100", "value": "1.499 and 1.508"}, {"measurement": "ELISA absorbance of sera", "setting": "bleed 2Y + 1 (1to100), dilution 200", "value": "1.399 and 1.429"}, {"measurement": "ELISA absorbance of sera", "setting": "bleed 2Y + 1 (1to100), dilution 400", "value": "1.232 and 1.283"}, {"measurement": "ELISA absorbance of sera", "setting": "bleed 2Y + 1 (1to100), dilution 800", "value": "0.988 and 1.067"}, {"measurement": "ELISA absorbance of sera", "setting": "bleed 2Y + 1 (1to100), dilution 1,600", "value": "0.768 and 0.793"}, {"measurement": "ELISA absorbance of sera", "setting": "bleed 2Y + 1 (1to100), dilution 3,200", "value": "0.508 and 0.560"}, {"measurement": "ELISA absorbance of sera", "setting": "bleed 2Y + 1 (1to100), dilution 6,400", "value": "0.303 and 0.339"}, {"measurement": "ELISA absorbance of sera", "setting": "bleed 2Y + 1 (1to100), dilution 12,800", "value": "0.235 and 0.201"}, {"measurement": "ELISA absorbance of sera", "setting": "bleed 2Y + 2 (1to1k), dilution row 100 (Table 5C), dilution 100", "value": "1.553 and 1.522"}, {"measurement": "ELISA absorbance of sera", "setting": "bleed 2Y + 2 (1to1k), dilution row 200 (Table 5C), dilution 200", "value": "1.327 and 1.281"}, {"measurement": "ELISA absorbance of sera", "setting": "bleed 2Y + 2 (1to1k), dilution row 400 (Table 5C), dilution 400", "value": "1.035 and 0.982"}, {"measurement": "ELISA absorbance of sera", "setting": "bleed 2Y + 2 (1to1k), dilution row 800 (Table 5C), dilution 800", "value": "0.777 and 0.736"}, {"measurement": "ELISA absorbance of sera", "setting": "bleed 2Y + 2 (1to1k), dilution row 1,600 (Table 5C)", "value": "0.502 and 0.525"}, {"measurement": "ELISA absorbance of sera", "setting": "bleed 2Y + 2 (1to1k), dilution row 3,200 (Table 5C)", "value": "0.294 and 0.299"}, {"measurement": "ELISA absorbance of sera", "setting": "bleed 2Y + 2 (1to1k), dilution row 6,400 (Table 5C)", "value": "0.171 and 0.156"}, {"measurement": "ELISA absorbance of sera", "setting": "bleed 2Y + 2 (1to1k), dilution row 12,800 (Table 5C)", "value": 0.085}, {"measurement": "ELISA absorbance of sera", "setting": "bleed 2Y + 3 (1to1k), dilution 100", "value": "1.256 and 1.224"}, {"measurement": "ELISA absorbance of sera", "setting": "bleed 2Y + 3 (1to1k), dilution 200", "value": "1.126 and 1.121"}, {"measurement": "ELISA absorbance of sera", "setting": "bleed 2Y + 3 (1to1k), dilution 400", "value": "0.933 and 0.900"}, {"measurement": "ELISA absorbance of sera", "setting": "bleed 2Y + 3 (1to1k), dilution 800", "value": "0.714 and 0.699"}, {"measurement": "ELISA absorbance of sera", "setting": "bleed 2Y + 3 (1to1k), dilution 1,600", "value": "0.500 and 0.484"}, {"measurement": "ELISA absorbance of sera", "setting": "bleed 2Y + 3 (1to1k), dilution 3,200", "value": "0.318 and 0.296"}, {"measurement": "ELISA absorbance of sera", "setting": "bleed 2Y + 3 (1to1k), dilution 6,400", "value": "0.150 and 0.154"}, {"measurement": "ELISA absorbance of sera", "setting": "bleed 3Y + 1 (1to1k), dilution 100", "value": "1.597 and 1.466"}, {"measurement": "ELISA absorbance of sera", "setting": "bleed 3Y + 1 (1to1k), dilution 200", "value": "1.387 and 1.308"}, {"measurement": "ELISA absorbance of sera", "setting": "bleed 3Y + 1 (1to1k), dilution 400", "value": "1.090 and 0.994"}, {"measurement": "ELISA absorbance of sera", "setting": "bleed 3Y + 1 (1to1k), dilution 800", "value": "0.859 and 0.753"}, {"measurement": "ELISA absorbance of sera", "setting": "bleed 3Y + 1 (1to1k), dilution 1,600", "value": "0.527 and 0.511"}, {"measurement": "ELISA absorbance of sera", "setting": "bleed 3Y + 1 (1to1k), dilution 3,200", "value": "0.275 and 0.263"}, {"measurement": "ELISA absorbance of sera", "setting": "bleed 3Y + 1 (1to1k), dilution 6,400", "value": "0.154 and 0.081"}, {"measurement": "ELISA absorbance of sera", "setting": "bleed 3Y + 2 (1to1k), dilution 100", "value": "2.076 and 1.906"}, {"measurement": "ELISA absorbance of sera", "setting": "bleed 3Y + 2 (1to1k), dilution 200", "value": "1.803 and 1.701"}, {"measurement": "ELISA absorbance of sera", "setting": "bleed 3Y + 2 (1to1k), dilution 400", "value": "1.417 and 1.293"}, {"measurement": "ELISA absorbance of sera", "setting": "bleed 3Y + 2 (1to1k), dilution 800", "value": "1.116 and 0.979"}, {"measurement": "ELISA absorbance of sera", "setting": "bleed 3Y + 2 (1to1k), dilution 1,600", "value": "0.685 and 0.664"}, {"measurement": "ELISA absorbance of sera", "setting": "bleed 3Y + 2 (1to1k), dilution 3,200", "value": "0.357 and 0.342"}, {"measurement": "ELISA absorbance of sera", "setting": "bleed 3Y + 2 (1to1k), dilution 6,400", "value": "0.201 and 0.205"}, {"measurement": "ELISA absorbance of sera", "setting": "bleed 3Y + 3 (1to1k), dilution 100", "value": "1.811 and 1.973"}, {"measurement": "ELISA absorbance of sera", "setting": "bleed 3Y + 3 (1to1k), dilution 200", "value": "1.616 and 1.713"}, {"measurement": "ELISA absorbance of sera", "setting": "bleed 3Y + 3 (1to1k), dilution 400", "value": "1.228 and 1.346"}, {"measurement": "ELISA absorbance of sera", "setting": "bleed 3Y + 3 (1to1k), dilution 800", "value": "0.930 and 1.061"}, {"measurement": "ELISA absorbance of sera", "setting": "bleed 3Y + 3 (1to1k), dilution 1,600", "value": "0.631 and 0.651"}, {"measurement": "ELISA absorbance of sera", "setting": "bleed 3Y + 3 (1to1k), dilution 3,200", "value": "0.230 and 0.244"}, {"measurement": "ELISA absorbance of sera", "setting": "bleed 3Y + 3 (1to1k), dilution 6,400", "value": "0.081 and 0.096"}]}]}
